Measurements taken from patent publication US20230107274A1, “AN ORAL PHARMACEUTICAL COMPOSITION COMPRISING AN EXTRACT OF COMBINED HERBS COMPRISING LONGANAE ARILLUS FOR THE TREATMENT OR ALLEVIATION OF INFLAMMATORY DISEASE AND THE USE THEREOF” (MEDIHELPLINE CO., LTD, priority 2020, published 2023).

Columns and labels:
[1] = test system: MIA(Monosodium iodoacetate)-induced osteoarthritis rat model; experiment: Bone injury by micro-CT in MIA-induced osteoarthritis rat model; assay type: in vivo; settings: 30 mg/kg oral once a day; vehicle 45.7
Method: (§1) In order to evaluate the efficacy of test sample on MIA(Monosodium iodoacetate)-induced osteoarthritis rat model, following test was performed at “Joint and Immune disease T2B center(chief MD. PARK, Sung-whan) located in “The Catholic University of Korea, Seoul ST. Mary's Hospital, Seoul).
(§2) (1) Test animals: Rats (Male Wista rats, Central Lab. Animal, Seoul, Korea, 7 to 8 weeks aged, 200 to 250 g) were bred in the well-controlled breeding room in polysulfone cage (2-3 […] per cage) maintaining the temperature of 21±2° C. and relative humidity of 50±20% with the light cycle of day/dark (08:00˜20:00) at the interval of 12 hours and acclimated to the surround environment
(§3) Test method: 3 mg/kg of Monosodium iodoacetate (MIA, 12512, Sigma, Poole, UK) was dissolved in the injection saline to re reach to 60 mg/ml concentration on the day of the experiment (day 0). […]
The degree of bone injury around femur area of the knee joint in each group consisting of 3 rats, was determined using X-ray source (70 kV, 142 uA, AI 0.5 mm filter, rotation step 0.6°) and animal scanner (SKYSCAN1272 ex-vivo micro-CT, Bruker micro CT, Belgium) to perform micro-CT photography at 15 μm of Pixel resolution including section formation (NRecon), section rotation (Data Viewer), data Analysis (CTAN), Volume rendering generation (CTVox), and surface rendering (CTAN+CTVol).

[2] = test system: MIA(Monosodium iodoacetate)-induced osteoarthritis rat model; experiment: Weight bearing in MIA-induced osteoarthritis rat model; assay type: in vivo
Method: as §1, §2
(§4) Test method: 3 mg/kg of Monosodium iodoacetate (MIA, 12512, Sigma, Poole, UK) was dissolved in the injection saline to re reach to 60 mg/ml concentration on the day of the experiment (day 0). After dividing each groups, the experimental animals were placed in the anesthesia chamber and anesthetized with diethyl ether. 50 μL of MIA (3 mg/body) was injected into the right knee joint through the infrapatellar ligament using a 1cc syringe (26.5 gauge) in order to inducing osteoarthritis
(§5) (4) Treatment route: oral administration 3 days after inducing osteoarthritis (once a day)
(§6) After inducing osteoarthritis with MIA, test sample treatment groups (G2, G3) were prepared by homogenizing the test samples with vehicle (saline) according to the prescribed dose and orally administrating 1 mL of test sample once a day.
In order to measure the change in weight (or weight distribution) between normal hind legs (left) and arthritis-induced hind legs (right), the load of both hind feet was determined using testing apparatus (Model 600, IITC, USA) according to the method described in the literature (Kwon J Y et al., Sci Rep. 2018 Sep. 14; 8(1):13832).
The test animal shall be correctly located in the holder and fixed so that both feet can be stepped symmetrically, since the load can be varied depending on the position of the animal's foot. The particular person performs the fixation to reduce the possible error to the maximum extent.
When each animal was correctly located in the holder, the machine was operated and the weight bearing of each group was measured twice for 5 seconds per measurement.
The mean value for each test result was digitized into the weight bearing(g) of each foot.
After obtaining a baseline value before MIA treatment (Day 0), the weight bearing in the normal control group (G1), test sample groups (G2, G3) and positive control group (G4), was determined at a certain time twice a week, 3 days before the treatment of test sample (day 3).
The test results of the weight load measurement were transformed into each weight bearing ratio according to below Math 1.
Weight ratio (%)={weight of right hind limb/(weight of right hind limb+weight of left hind limb)}×100 [Math.1]

[3] = test system: MIA(Monosodium iodoacetate)-induced osteoarthritis rat model; experiment: Pain threshold (dynamic plantar aesthesiometer) in MIA-induced osteoarthritis rat model; assay type: in vivo
Method: as §1, §2, §4, §5, §6
The positive control group (G4) was homogenized to the vehicle according to the prescribed dose and orally administered once a day.
24 rats were divided into 4 groups per 6 rats, and the test samples and positive control substance were orally administered at a specified time.
The pain threshold (nociceptive latency, threshold) was determined by using dynamic plantar aesthesiometer (Ugo Basile, 37400, Comerio, Italy), a device that gradually increases the force on the feet of Male Wistarats over a certain period of time, according to a […] evaluation method to measure pain thresholds ((Kwon J Y et al., Sci Rep. 2018 Sep. 14; 8(1):13832)
Prior to measurement, the animal was placed in an acrylic box with a wire mesh bench and acclimated for five minutes.
The pain threshold was determined by measuring the weight showing paw withdrawal behavior which animal withdraws its feet by applying a slow force of 0 to 50 g over 10 seconds using metal filaments in the center of each animal's right hind foot.
To avoid tissue damage, the cut-off threshold was set to 50 g, and the measurement time was set to the day before the inducing day of osteoarthritis by the treatment of MIA to calculate base line value in the normal control group (G1), test sample groups (G2, G3) and positive control group (G4) and the same value was obtained in the base line (day 3).
The same value was measured before the treatment of test samples (day 3) and the value was measured once a week at a certain time by administering the test samples in the […] of rats.
The test result of pain threshold was calculated according to (a) paw withdrawal latencies (sec) and (b) paw withdrawal threshold (g).

[4] = test system: MIA(Monosodium iodoacetate)-induced osteoarthritis rat model; experiment: Bone injury by histopathological analysis (Safranin O; Total Mankin score, OARSI score) in MIA-induced osteoarthritis rat model; assay type: in vivo; settings: 30 mg/kg oral once a day
Method: as §1, §2
as §3, with “0). After dividing each groups, the experimental animals were placed in the anesthesia chamber and anesthetized with diethyl ether.” for “0).”
The histopathological analysis was performed by photographing the femur area of knee joint (×200 fold). The test result was calculated and evaluated according to the known methods including Total Mankin score (Bulstra S K et al., 1989, Clin Orthop Relat Res: 294-302.) and OARSI score (Pritzker K. P. H. et al., 2006, Osteoarthritis Cartilage 14:13-29).

TSLP = experiment: Inhibition of cytokine expression in TNF alpha-induced HaCaT cell (Real-time PCR): TSLP; assay type: cell-based, human; settings: TNFα 50 ng/ml, Dexamethasone 200 nM, TNFα+DIW control 132.4692
Method: (§7) In order to determine the anti-inflammatory activity of inventive extract, following inhibition test of cytokine expression using HaCaT cell was performed according to the procedure disclosed in the literature (Jeong et al., 2019, J. Invest. Dermatol., May; 139 (5): pp 1098-1109).
(§8) HaCaT cell (human epithelial keratinocyte cell, 300493, CLS) was inoculated into DMEM medium containing 10% Fetal bovine serum, 100 units/ml of penicillin, 100 μg/ml of streptomycin (D6429, Sigma-Aldrich Co. Ltd) and was incubated in the incubator (HERA cell 150i, Thermo Fisher Scientific Co. Ltd.) maintaining optimum humidity (85-95%) and 5% CO2 atmosphere.
(§9) For performing gene expression test, the incubated cells were transferred to 12 wells and 50 ng/ml of TNF alpha (RC214-12, Biobasic Co. Ltd) was treated therewith for 1 hour to induce inflammatory response.
(§10) 1 hour after inducing the inflammation, 1 μg/ml of inventive extract prepared in Examples was treated with identical medium and subjected to incubation for 1 hour. After the incubation, RNA (FATRR-001, Favorgen) was extracted from the cell and cDNA was synthesized from the RNA using by cDNA synthesis kit (RRO36A, TAKARA). […]

IL-1β = experiment: Inhibition of cytokine expression in TNF alpha-induced HaCaT cell (Real-time PCR): IL-1β; assay type: cell-based, human; settings: TNFα 50 ng/ml, Dexamethasone 200 nM, TNFα+DIW control 4.152715
Method: as §7, §8, §9, §10

`Cc1ccc(-c2cc(C(F)(F)F)nn2-c2ccc(S(N)(=O)=O)cc2)cc1` [Celecoxib] was tested, and the “Bone surface (Micro-CT, femur area of knee joint)” value [1] was 57.5 ± 0.5%, the “weight bearing, weight ratio of right hind limb” value (from here on “weight bearing, weight ratio”) ([2]; 30 mg/kg oral once a day, 6 days after MIA inducement, vehicle 35.5) was 38.5 ± 1.8% and the “weight bearing, weight ratio” value ([2]; 30 mg/kg oral once a day, 11 days after MIA inducement, vehicle 33.8) was 40.0 ± 3.2%. The “weight bearing, weight ratio” value ([2]; 30 mg/kg oral once a day, 13 days after MIA inducement, vehicle 32.3) was 44.5 ± 0.7%, the “weight bearing, weight ratio” value ([2]; 30 mg/kg oral once a day, 17 days after MIA inducement, vehicle 32.2) was 43.9 ± 1.3% and the “weight bearing, weight ratio” value ([2]; 30 mg/kg oral once a day, 21 days after MIA inducement, vehicle 31.6) was 39.7 ± 3.7%. For the same compound, the “weight bearing, weight ratio” value ([2]; 30 mg/kg oral once a day, 25 days after MIA inducement, vehicle 33.3) was 41.7 ± 1.9%, the “weight bearing, weight ratio” value ([2]; 30 mg/kg oral once a day, Before MIA inducement (baseline), vehicle 50.6) was 49.3 ± 0.9% and the “weight bearing, weight ratio” value ([2]; 30 mg/kg oral, 3 days after MIA inducement (before first dose), vehicle 36.9) was 34.7 ± 4.0%. For the same compound, the paw withdrawal latencies ([3]; 30 mg/kg oral once a day, 6 days after MIA treatment, vehicle 8.6) was 9.9 ± 2.2 s, the paw withdrawal threshold ([3]; 30 mg/kg oral once a day, 6 days after MIA treatment, vehicle 17.4) was 19.9 ± 4.3 g and the paw withdrawal latencies ([3]; 30 mg/kg oral once a day, 11 days after MIA treatment, vehicle 9.1) was 10.2 ± 0.9 s. For the same compound, the paw withdrawal threshold ([3]; 30 mg/kg oral once a day, 11 days after MIA treatment, vehicle 18.5) was 20.7 ± 1.7 g, the paw withdrawal latencies ([3]; 30 mg/kg oral once a day, 13 days after MIA treatment, vehicle 9.0) was 10.4 ± 0.9 s and the paw withdrawal threshold ([3]; 30 mg/kg oral once a day, 13 days after MIA treatment, vehicle 18.3) was 21.0 ± 1.6 g. It also gave a paw withdrawal latencies ([3]; 30 mg/kg oral once a day, 17 days after MIA treatment, vehicle 9.5) of 10.9 ± 1.8 s, a paw withdrawal threshold ([3]; 30 mg/kg oral once a day, 17 days after MIA treatment, vehicle 19.2) of 22.0 ± 3.4 g and a paw withdrawal latencies ([3]; 30 mg/kg oral once a day, 21 days after MIA treatment, vehicle 9.0) of 11.9 ± 1.5 s. The paw withdrawal threshold ([3]; 30 mg/kg oral once a day, 21 days after MIA treatment, vehicle 18.3) was 24.0 ± 2.9 g, the paw withdrawal latencies ([3]; 30 mg/kg oral once a day, 25 days after MIA treatment, vehicle 9.0) was 11.6 ± 1.0 s and the paw withdrawal threshold ([3]; 30 mg/kg oral once a day, 25 days after MIA treatment, vehicle 18.2) was 23.4 ± 1.9 g. The paw withdrawal latencies ([3]; 30 mg/kg oral once a day, Before MIA treatment (baseline), vehicle 16.8) was 16.0 ± 1.5 s, the paw withdrawal threshold ([3]; 30 mg/kg oral once a day, Before MIA treatment (baseline), vehicle 33.6) was 33.8 ± 2.9 g and the paw withdrawal latencies ([3]; 30 mg/kg oral, 3 days after MIA treatment (before first dose), vehicle 9.4) was 9.2 ± 2.1 s. For the same compound, the paw withdrawal threshold ([3]; 30 mg/kg oral, 3 days after MIA treatment (before first dose), vehicle 19.0) was 18.6 ± 4.1 g, the OARSI score ([4]; vehicle 4) was 2.4 ± 0.4 and the “Total Mankin score” value ([4]; vehicle 7.5) was 4 ± 0.6.

With `C[C@@H]1C[C@H]2[C@@H]3CCC4=CC(=O)C=C[C@]4(C)[C@@]3(F)[C@@H](O)C[C@]2(C)[C@@]1(O)C(=O)CO` [Dex, Dexamethasone] the “TSLP expression (RT-PCR, relative to untreated = 1)” value (TSLP) was 52.49 and the “IL-1β expression (RT-PCR, relative to untreated = 1)” value (IL-1β) was 1.081.
